Experimental data published in the NIST ThermoML archive (doi:10.1016/j.fluid.2012.10.024).

Key:
[1] = mn = molality of the nth substance listed, in mol/kg; conditions: 101 kPa, Liquid, Vibrating tube method
[2] = 101.33 kPa, Liquid, Vibrating tube method

OCC1CCCNC1 (configuration not stated) [3-(hydroxymethyl)piperidine] + O
mass density [kg/m3], [1]
Conditions	m1 = 0.0562	m1 = 0.0841	m1 = 0.1205	m1 = 0.1576	m1 = 0.188	m1 = 0.2257	m1 = 0.2728	m1 = 0.3059	m1 = 0.3481
293.15 K	999.04	999.09	999.36	999.67	999.94	1000.2	1000.48	1000.72	1000.95
298.15 K	997.9	997.94	998.2	998.52	998.77	999.02	999.285	999.52	999.74
303.15 K	996.5	996.53	996.79	997.1	997.34	997.58	997.835	998.06	998.27
308.15 K	994.87	994.9	995.16	995.46	995.7	995.93	996.165	996.39	996.59
313.15 K	993.05	993.07	993.32	993.61	993.85	994.07	994.3	994.52	994.71
318.15 K	991.04	991.06	991.3	991.58	991.82	992.02	992.25	992.46	992.64

OCc1ccccn1 [α-picolyl alcohol]
[2]
Conditions	mass density [kg/m3]
291.15 K	1133.6
292.15 K	1133.1
293.15 K	1132.4
295.15 K	1130.7
297.15 K	1129.3
298.15 K	1128.7
299.15 K	1127.7
300.15 K	1127.1
302.15 K	1125.6
303.15 K	1124.8
304.15 K	1124
306.15 K	1122.4
308.15 K	1120.8
310.15 K	1119.4
312.15 K	1118.1
313.15 K	1117.2
315.15 K	1115.6
317.15 K	1114.2
318.15 K	1113.5

OCc1cccnc1 [β-picolyl alcohol]
[2]
Conditions	mass density [kg/m3]
291.15 K	1138.2
292.15 K	1137.5
293.15 K	1136.8
295.15 K	1135.3
297.15 K	1134.1
298.15 K	1133.5
299.15 K	1132.6
300.15 K	1131.8
302.15 K	1130.4
303.15 K	1129.6
304.15 K	1128.9
306.15 K	1127.5
308.15 K	1125.9
310.15 K	1124.7
312.15 K	1123.5
313.15 K	1122.6
315.15 K	1121.2
317.15 K	1120
318.15 K	1119.3
